Counter-ions that a name gives are not always drawn. Marks after values point to notes of the source that are not given here.

Assay [1] deals with Drosophila melanogaster adult males (wild type Oregon-R strain). The experiment in a line: Negative geotaxis assay (height climbed, climbing speed). In kind it is in vivo. The following applies: for Height climbed by flies, Mean / Climbing speed of flies, Mean: n=30. How it is done: (§1) Unless otherwise mentioned, standard methods of fly manipulation were followed. Standard fly medium consisting of agar-agar, maize powder, brown sugar, dried yeast and nipagin was used. Flies were cultured at 22±1° C., 60% RH, and 12 hrs light (9 AM to 9 PM) and 12 hours dark cycle. D. melanogaster wild type Oregon-R strain was used in the experiment. To obtain males for control and drug treatment, flies from identical cultures grown in glass vials were first allowed to lay eggs in milk bottles containing medium. Flies were shifted to fresh bottles every 12 hr. First 4 sets of bottles were discarded. Flies that emerged in subsequent bottles were only used. Those that emerged in the beginning were first discarded and then flies were collected twice at 12 hr interval. Flies collected each time were kept separately in a single bottle. Two days after first collection, males and females from both the bottles were separated. Males were then pooled together and shifted to a new bottle. Flies were used for control or drug treatment two days later.
(§2) Following morning after pooling males for treatment, drugs (Sigma-Aldrich Co, St. Louis, U.S.A.) were first dissolved in distilled water at following concentration: 33.3 mg/ml of strychnine (STR), 40 mg/ml of pentylenetetrazol (PTZ), 20 mg/ml of pilocarpine-hydrochloride (PILO), 20 mg/ml of tetraethylammonium chloride (TEA), 10 mg/ml of lithium chloride (LICA), and 10.5 mg/ml of ethosuximide (ESD). Appropriate volume of freshly made drug solutions were then poured in molten fly media, and mixed thoroughly, to achieve a final concentration of 3.33 mg/ml of STR, 4 mg/ml of PTZ, 2 mg/ml of PILO, 2 mg/ml of TEA, 1 mg/ml of LICA, and 1.05 mg/ml of ESD. For control, i.e., normal food (NF), distilled water of same volume as drug solution was added in the medium and mixed. Following this, the molten media was dispensed in glass vials, stored overnight at 4° C. and then used for above treatment of flies. Thirty male flies were shifted to each of the seven treatment vials, NF, STR, PTZ, PILO, TEA, LICA and ESD. Flies were maintained at 22±1° C., 60% RH, and 12 hrs light (9 AM to 9 PM) and 12 hours dark cycle.
(§3) Negative geotaxis assays for measuring height climbed and climbing speed, and horizontal locomotion assay for measuring distance walked—were performed at room temperature, between 9 AM to 9 PM. They were all performed at a specified area in a room, where same light sources were always used. While measuring various locomotor activities, extreme care was taken to ensure that the room is quiet, and the table onto which assays were performed undisturbed and vibration free. Utmost care was taken to ensure identical handling of flies, in minutest details. For measuring height climbed, climbing speed and distance walked, a single fly was randomly selected at a time. This was achieved by first inverting flies from a given treatment vial into an empty vial and then continuously and gently shaking and inverting both the vials in such a way that a single fly is finally trapped in the empty vial. Once trapped, all the three locomotor activities were measured using the same fly, height climbed, climbing speed and distance walked, in that order. One fly each from NF, STR, PTZ, PILO, TEA, LICA, and ESD, selected randomly, was first scored and then the same exercise was repeated for another two flies. Once a fly was scored for all the three locomotor activities, it was discarded. Flies were particularly checked for intact legs and wings, before they were used in negative geotaxis and horizontal locomotion assays.
(§4) A glass tube of 1.7 cm diameter and […], along with two cotton plugs were used in negative geotaxis and horizontal locomotion assays. The tube was length wise marked with lines at every cm. Three flies from each treatment were assayed. Each fly was assayed 10 times in succession.

For assay [2] the test system is unchanged. The experiment in a line: Horizontal locomotion assay (distance walked). Format: in vivo. The following applies: for Distance walked by flies, Mean: n=30; for distance walked than the control: 31 day of drug withdrawal, result in words. How it is done:
as §1, §2, §3, §4

The mark [3] stands for this setting: 4th day after drug withdrawal (21st day of beginning of treatment).
Setting [4] is: 31st day after drug withdrawal (48th day of beginning of treatment).
The mark [5] stands for this setting: 31st day after drug withdrawal, result in words.
[6] abbreviates: day 7 of the beginning of treatment, drug in fly medium.
The mark [7] stands for this setting: day 7 of the beginning of treatment, result in words.

In the case of `CCC1(C)CC(=O)NC1=O` (centres unmarked) [ESD, ethosuximide], the figures for the “Height climbed by flies, Mean” value in assay [1] (setting [3]) and in assay [1] (setting [4]) were 32.66*** cm and 19.5*** cm, respectively. Besides, the “Climbing speed of flies, Mean” value was 1.5*** cm/sec in assay [1] (4th day after drug withdrawal) and 1.52*** cm/sec in assay [1] (31st day after drug withdrawal). In assay [1] (4th day after drug withdrawal, result in words), the “height climbed compared to NF” value is reported as “increase”. Further, the “climbing speed than the control (Table 2)” value in assay [1] (setting [5]) is “greater”. In assay [1] (setting [6]), the “Climbing speed, Mean” value was found to be 0.98 cm/s. Moreover, the “Height climbed, Mean” value in assay [1] (setting [6]) is 25.66* cm. The “height climbed compared to NF, the control” value in assay [1] (setting [7]) was “increase”. In addition, the figures for the “Distance walked by flies, Mean” value in assay [2] (4th day after drug withdrawal) and in assay [2] (31st day after drug withdrawal) were 40.16*** cm marks crossed per minute and 30.63 cm marks crossed per minute, respectively. Moreover, the “Distance walked, Mean” value in assay [2] (setting [6]) was 37.1 cm marks crossed per minute.

For `[Cl-].[Li+]` [LICA, lithium chloride], the “Height climbed by flies, Mean” value in assay [1] (setting [3]) is 25.33 cm; in assay [1] (setting [4]) it was 11.4* cm. Also, the “Climbing speed of flies, Mean” value in assay [1] (4th day after drug withdrawal) was 1.22* cm/sec; in assay [1] (31st day after drug withdrawal) it was 1.3*** cm/sec. Also, the “climbing speed than the control (Table 2)” value in assay [1] (setting [5]) is recorded as “lower”. For the same compound, the “Climbing speed, Mean” value in assay [1] (setting [6]) is 1.9*** cm/sec. For the same compound, the “Height climbed, Mean” value in assay [1] (setting [6]) is 35.8*** cm. In assay [1] (setting [7]), the “height climbed compared to NF, the control” value is on record as “increase”. Besides, the “Distance walked by flies, Mean” value is 33*** cm marks crossed per minute in assay [2] (4th day after drug withdrawal) and 6.93*** cm marks crossed per minute in assay [2] (31st day after drug withdrawal). Moreover, the “distance walked than the control” value in assay [2] is “lesser”. Further, in assay [2] (setting [6]), the “Distance walked, Mean” value is recorded as 34.23 cm marks crossed per minute.

With `CC[C@@H]1C(=O)OC[C@@H]1Cc1cncn1C` [PILO, pilocarpine-hydrochloride], the “Height climbed by flies, Mean” value in assay [1] (setting [3]) stood at 19.96 cm; in assay [1] (setting [4]), 16.46 cm. The “Climbing speed of flies, Mean” value is 1.32** cm/sec in assay [1] (4th day after drug withdrawal) and 1.14** cm/sec in assay [1] (31st day after drug withdrawal). Further, in assay [1] (setting [6]), the “Climbing speed, Mean” value was 1.52*** cm/sec. The “Height climbed, Mean” value in assay [1] (setting [6]) is 34.66*** cm. Also, the “height climbed compared to NF, the control” value in assay [1] (setting [7]) is on record as “increase”. Moreover, the “Distance walked by flies, Mean” value is given as 33.83** cm marks crossed per minute in assay [2] (4th day after drug withdrawal) and 21.16 cm marks crossed per minute in assay [2] (31st day after drug withdrawal). Moreover, the “Distance walked, Mean” value in assay [2] (setting [6]) is reported as 48.53*** cm marks crossed per minute.

In the case of `C1CCc2nnnn2CC1` [PTZ, pentylenetetrazol], the “Climbing speed of flies, Mean” value in assay [1] (4th day after drug withdrawal) is listed as 1.25** cm/sec; in assay [1] (31st day after drug withdrawal) it was 1.37*** cm/sec. The “climbing speed than the control (Table 2)” value in assay [1] (setting [5]) was “lower”. Further, the “Climbing speed, Mean” value in assay [1] (168 h) is 1.63*** cm/sec. The “Height climbed, Mean” value in assay [1] (168 h) is reported as 29.13*** cm. In addition, in assay [1] (setting [7]), the “height climbed compared to NF, the control” value is “increase”. Moreover, the “Distance walked by flies, Mean” value in assay [2] (4th day after drug withdrawal) was 28.03*** cm marks crossed per minute; in assay [2] (31st day after drug withdrawal) it was 12.5* cm marks crossed per minute. For the same compound, the “Distance walked, Mean” value in assay [2] (168 h) is reported as 42.5** cm marks crossed per minute. The “distance walked than the control” value in assay [2] is reported as “lesser”.

Turning to `O=C1C[C@@H]2OCC=C3CN4CC[C@]56c7ccccc7N1[C@H]5[C@H]2[C@H]3C[C@H]46` [STR, strychnine], the “Height climbed by flies, Mean” value is reported as 26.26 cm in assay [1] (setting [3]) and 15.8 cm in assay [1] (setting [4]). In addition, the entries for the “Climbing speed of flies, Mean” value in assay [1] (4th day after drug withdrawal) and in assay [1] (31st day after drug withdrawal) were 1.29** cm/sec and 1.04* cm/sec, respectively. The “Climbing speed, Mean” value in assay [1] (setting [6]) is on record as 1.53*** cm/sec. In addition, in assay [1] (setting [6]), the “Height climbed, Mean” value was 33.36*** cm. Moreover, the “Distance walked by flies, Mean” value in assay [2] (4th day after drug withdrawal) is reported as 43.66 cm marks crossed per minute; in assay [2] (31st day after drug withdrawal), 27.66 cm marks crossed per minute. The “Distance walked, Mean” value in assay [2] (setting [6]) was 39.33* cm marks crossed per minute.

For `CC[N+](CC)(CC)CC.[Cl-]` [TEA, tetraethylammonium chloride], the entries for the “Height climbed by flies, Mean” value in assay [1] (setting [3]) and in assay [1] (setting [4]) were 22.13 cm and 16.2 cm, respectively. Also, the “Climbing speed of flies, Mean” value in assay [1] (4th day after drug withdrawal) came out at 1.11 cm/s. Also, the “Climbing speed, Mean” value in assay [1] (setting [6]) is on record as 1.67*** cm/sec. For the same compound, the “Height climbed, Mean” value in assay [1] (setting [6]) is 32*** cm. In assay [1] (setting [7]), the “height climbed compared to NF, the control” value is recorded as “increase”. Further, the “Distance walked by flies, Mean” value in assay [2] (4th day after drug withdrawal) is 26.76*** cm marks crossed per minute; in assay [2] (31st day after drug withdrawal), 27.16 cm marks crossed per minute. Further, the “Distance walked, Mean” value in assay [2] (setting [6]) is 45.1*** cm marks crossed per minute.

These data come from patent US20050144654A1, “Procedure for screening of neuroactive substance and the associated neural plasticity” (COUNCIL OF SCIENTIFIC & INDUSTRIAL RESEARCH, priority 2003, published 2005).
